# From US10668048B2, “Compounds for inhibiting bacterial growth via phosphatidylglycerol binding” (Wichita State University, priority 2016, dated 2020)
# Legend:
# [1] = Liptin-PG binding in solution (ITC and/or 1H NMR titration); details: ITC; 50% DMSO, 45% CHCl3, 5% CH3OH
# Procedure: The lipid binding ability of liptins 1-3 (FIG. 2A) have been investigated in solution using isothermal titration calorimetry (ITC) and/or ^1H NMR. Stoichiometry of binding was accomplished with Job plots using ^1H NMR. […] The use of organic solvents allowed the determination of binding motif using ^1H NMR.
# Liptins 1b, 1e, 2c, 2d, 3a, 3c in DMF/5% CHCl3; 3e in 50% DMSO, 45% CHCl3, 5% CH3OH.
# Liptins 1h and 1i 40% DMSO, 60% CHCl3, 3f in 20% DMSO, 80% CHCl3.
# [2] = Carboxyfluorescein efflux from pure PG vesicles; type: biochemical; details: room temperature, after three hours
# Procedure: Liptin/bilayer interactions were evaluated using conventional efflux measurements. These experiments make use of the self-quenching fluorescence of carboxyfluorescein. At relatively high concentrations (ca. 50 mM) the fluorescence from carboxyfluorescein is diminished by approximately 70% due to intermolecular interactions.
# To perform efflux experiments vesicles were prepared by rehydrating a film of pure DPPG with a 50 mM solution of carboxyfluorescein in buffer. The solution was then extruded through a polycarbonate membrane with 200 nm pore size. […] Under these conditions, as the dye leaves the vesicles by efflux, fluorescence intensity increases. Monitoring the fluorescence intensity over time provides a measure of the rate at which dye crosses the membrane and an indication of the “leakiness” of the vesicle bilayer. Efflux can be expressed as % Efflux by the following expression:
# [formula] where F0 is the fluorescence intensity corresponding to the initial sample when efflux first begins and F∞ is the intensity after efflux is complete and is determined by rupturing the vesicles by the addition of a small amount of concentrated detergent. F(t) is the fluorescence intensity measured as the efflux occurs. […]
# E. Coli (JMR 223-MC4100) = experiment: MIC in LB culture; type: cell-based; details: overnight 37° C.
# Procedure: An E. Coli (JMR 223-MC4100) plate was grown up overnight in LB agar at 37° C. A good colony was selected and added to 5 mL LB growth media. This was incubated at 37° C. with shaking at 250 rpm until the solution reaches an OD of at least 0.5 or higher at 600 nm. A final solution was diluted 500× to an OD of 0.001, correlating to a CFU of 1×10^6. 5 ml solutions of the diluted bacterial broth were measured out. Liptins were added to make solutions of 20 μM, 15 μM, 10 μM, 5 μM, 4 μM, 3 μM, 2 μM, and 1 μM (This means adding 0.2 mL, 0.15 mL, 0.1 mL, 0.05 mL, 0.04 mL, 0.03 mL, 0.02 mL, 0.01 mL of the 500 μM solution). Cultures were allowed to incubate overnight at 37° C. with shaking at 250 rpm. The following day, cultures were analyzed to evaluate the presence or absence of bacterial growth by spectrophotometry at 600 nm (0.66 mg of liptin in 0.95 mL of water; 0.15 OD Diluted 150× to OD of 0.001). […] Growth was not observed in the 2 μM and up solutions. See FIGS. 11A-11B for a visual image of the E. coli cultures.
# [3] = tested on: Enterococcus faecalis 29213; experiment: MIC in LB culture; type: cell-based
# Procedure: Strep fuecalis (aka Enterococcus faecalis 29213) cultures were prepared the same way as S. aureus, and analyzed as above. […] The OD600 of the control was 0.72. […] See photos for visual representation. See FIG. 11D for a visual image of the S. fuecalis cultures.
# [4] = tested on: E. coli, Staphylococcus aureus, Enterococcus faecalis; experiment: MIC of liptin 3e, overall statement; type: cell-based; details: LB culture
# E. coli (MC4100) = experiment: Serial passage resistance experiment; type: cell-based; details: 0.5 MIC, LB, 37° C., 80-100 generations
# Excerpt: (§1) Triplicate serial passage experiments were undertaken with E. coli (MC4100), S. aureus (33186) and E. feucalis (29213).
# E. feucalis (29213) = experiment: Serial passage resistance experiment; type: cell-based; details: 0.5 MIC, LB, 37° C., 80-100 generations
# Excerpt: as §1
# S. aureus (33186) = experiment: Serial passage resistance experiment; type: cell-based; details: 0.5 MIC, LB, 37° C., 80-100 generations
# Excerpt: as §1
# E. coli strain MC4100 = experiment: IPTG-induced PapD overexpression, gel electrophoresis; type: cell-based; details: IPTG and 5 μM
# Excerpt: The E. coli strain MC4100 will produce the pili chaperone PapD, a periplasmic protein, when induced by IPTG. […] The left panel represents the periplasmic fraction with lanes running left to right: ladder, NR, C, R, all with no IPTG; NR+IPTG, C+IPTG, R+IPTG (negative control was porphyrin A) or in the cytosol represented in the right panel with lanes running from left to right: NR, C, R, all with no IPTG; ladder, NR+IPTG, C+IPTG, R+IPTG (negative control was porphyrin A). (NR=no liptin, C=control, R=liptin). IPTG gets into the cytoplasm most efficiently via uphil symport via the plasma membrane protein lac permease when the plasma membrane is fully polarized.
# [5] = tested on: E. coli BL 21 (Tuner pLysS); experiment: Tetracycline-induced YqhD expression, gel electrophoresis; type: cell-based; details: 10 μM
# [6] = tested on: Gram-positive, Gram-negative, and Mycobacteria; experiment: Growth curves in BHI culture with liptin 3e; type: cell-based
# Excerpt: Growth curves were generated from liquid shake-flask cultures using absorbance measurements at 600 nm at different concentrations of liptin 3e. Uninoculated control flasks were used as blanks. Absorbance values of 0.1 OD unit was considered reasonable threshold for positive growth. […] Liptin exposure appears to stop bacterial growth, as evidenced by long lag phases, which increase with liptin concentration. In most cases, cultures recover, but growth rates and maximum cell densities are decreased with liptin treatment.
# Bacterial growth rates were reduced by liptin 3e treatment in a concentration-dependent manner. Rates were determined as the slope of the log phase of the growth curve, after the lag phase. An exponential relationship exists with marginally significant differences (p<0.1).
# Maximum culture densities represent the carrying capacity of a culture flask.
# [7] = E. coli and S. aureus, concentration-dependent
compound,measurement,setting,value
NCC(=O)Nc1ccccc1-c1c2nc(c(-c3ccccc3NC(=O)CN)c3ccc([nH]3)c(-c3ccccc3NC(=O)CN)c3nc(c(-c4ccccc4NC(=O)CN)c4ccc1[nH]4)C=C3)C=C2.O=C(O)C(F)(F)F.O=C(O)C(F)(F)F.O=C(O)C(F)(F)F.O=C(O)C(F)(F)F [Liptin 3e],Ka,[1],2800 M⁻¹
same,% Efflux of carboxyfluorescein,[2],5%
same,MIC,E. Coli (JMR 223-MC4100),1 to 2 µM
same,effect on bacterial growth,[3],inhibits bacterial growth
same,MIC,[4],less than 2 μM
same,MIC after 15 serial passages,E. coli (MC4100),no different than initial MICs
same,MIC after 15 serial passages,E. feucalis (29213),no different than initial MICs
same,MIC after 15 serial passages,S. aureus (33186),no different than initial MICs
same,PapD in periplasmic space or cytosol,E. coli strain MC4100,no PapD was found
same,protein synthesis,[5],most protein synthesis was effectively disrupted
same,bacterial growth rates,[6]; [7],reduces bacterial growth rates
same,maximum culture density,[6]; [7],decreases maximum culture density
same,antibacterial activity from growth curves,"[6]; one inoculation, BHI",highly bacteriostatic activity
